{"source": "paper PMC9499467", "about": "“Phenanthroindolizidine Alkaloids Isolated from Tylophora ovata as Potent Inhibitors of Inflammation, Spheroid Growth, and Invasion of Triple-Negative Breast Cancer” (International Journal of Molecular Sciences, 2022)", "key": {"[1]": {"test_system": "3D co-culture spheroids of MDA-MB-231 and primary murine CAFs", "experiment": "3D growth studies, spheroid size of co-culture spheroids", "assay_type": "cell-based, human MDA-MB-231", "conditions": "100 nM, 72 h", "protocol": "To emulate the TNBC microenvironment, 3D spheroids composed of MDA-MB-231 and CAFs at a ratio of 1:2 in a collagen-based matrix were generated. The culture medium of both cell lines was mixed (DMEM:RPMI 1640 (1:1) + 12.5% FCS + 1% PS) and supplemented with 0.05 mg/mL collagen type I (Thermo Fisher Scientific; #A1048301). On day 1, 3000 cells were seeded into a low-attachment 96 well plate (Greiner; #650970). Spheroids were grown for 72 h before proceeding with compound treatment on day 4, and analysis on day 7 according to the “Spheroid immunostaining”, “3D cell viability”, or “3D growth” studies presented in the results section.\nCo-culture spheroids were generated for 72 h before they were exposed to either DMSO (Roth; #A994.1) alone at maximal 0.1%, 100 nM paclitaxel (Santa Cruz Biotechnology; #sc-201439), or 100 nM of compound (1) for another 72 h. At least three spheroids per treatment group were analyzed. For that purpose, brightfield images of the spheroids were acquired at 100× g magnification using the microscope Axio Vert.A1 (Zeiss). The spheroid surface area was quantified in brightfield images using Fiji (open-source software; version 1.52i) and was further defined as spheroid size. In each individual experiment spheroid size was normalized to the smallest (which was set to 0%) and to the largest spheroids (which was set to 100%)."}, "[2]": {"test_system": "MDA-MB-231", "experiment": "Cell cycle studies (PI-DNA flow cytometry) in MDA-MB-231", "assay_type": "cell-based, human", "conditions": "MDA-MB-231, 20 nM, 72 h", "protocol": "To investigate cell cycle progression in the presence of compound (1s) or paclitaxel (Santa Cruz Biotechnology; #sc-201439), we quantified the DNA content in the cell. On day 1, the cells were seeded in 1 mL into a 24 well plate (Greiner; #662160). On day 2, MDA-MB-468-UnaG were pre-treated either without (normoxia) or with 100 µM CoCl2 (hypoxia) (Sigma-Aldrich; #C8661) for 24 h before compounds were applied. On day 2 for MDA-MB-231 or on day 3 for MDA-MB-468-UnaG, paclitaxel was applied at the concentrations 15 nM, 37 nM, and 100 nM, and compound (1s) was applied at concentrations ranging from 2 nM to 1000 nM. […] The fluorescence signal resulting from PI-DNA complex formation was recorded using the flow cytometer CytoFlex (Beckmann Coulter, Krefeld, Germany). The cell cycle phase population was determined based on the DNA content in a set of chromosomes (n) in a cell using the integrated software CytExpert (Beckmann Coulter): sub-G0/G1 (<2n), G0/G1 (2n), S (>2n, <4n), G2/M (4n) or hyperploid cells (>4n) (see Figure S10).\nFSC-A and FSC-height (H). (c) To evaluate cell cycles phases, the range of analyzed cells was deter-mined within the (b) single cells by excluding recorded events that extend the proportional distri-bution of the DNA chromosome set (n): < 2n; > 4n. […]"}, "[3]": {"test_system": "HIF", "design": "method as in earlier work", "conditions": "luminal breast cancer cell line T47D; ref 62 (Chen et al.); cited from earlier work"}}}
{"smiles": "COc1ccc2c3c(c4cc(OC)c(OC)cc4c2c1)CN1CCCC1C3O", "note": "(stereo not drawn) [Compound (1), O-methyltylophorinidine]", "values": [{"measurement": "reduction of spheroid growth compared to untreated spheroids", "setting": "[1]", "result": 40, "unit": "%"}, {"measurement": "cell cycle phase population", "setting": "[2]", "result": "Cell populations increased in the S-phase as well as in the G2/M phase"}, {"measurement": "HIF induction under low oxygen level", "setting": "[3]", "result": "blockade of HIF induction"}]}
